Measurements published in patent US8846698B2, “Pyrrolo[2,3-d]pyrimidine tropomysin-related kinase inhibitors” (Pfizer Limited, priority 2011, dated 2014).
Where two headings read alike, the source gives them in different places.

Assays:
TRKA [1] = target: T1, TRKA (Homo sapiens (Human), UniProt P04629); assay: Cell based DiscoveRx PathHunter antagonist assay, TRKA cell line; details: read-out: TrkA cell potency
Target sequence in this assay (P04629 33-796): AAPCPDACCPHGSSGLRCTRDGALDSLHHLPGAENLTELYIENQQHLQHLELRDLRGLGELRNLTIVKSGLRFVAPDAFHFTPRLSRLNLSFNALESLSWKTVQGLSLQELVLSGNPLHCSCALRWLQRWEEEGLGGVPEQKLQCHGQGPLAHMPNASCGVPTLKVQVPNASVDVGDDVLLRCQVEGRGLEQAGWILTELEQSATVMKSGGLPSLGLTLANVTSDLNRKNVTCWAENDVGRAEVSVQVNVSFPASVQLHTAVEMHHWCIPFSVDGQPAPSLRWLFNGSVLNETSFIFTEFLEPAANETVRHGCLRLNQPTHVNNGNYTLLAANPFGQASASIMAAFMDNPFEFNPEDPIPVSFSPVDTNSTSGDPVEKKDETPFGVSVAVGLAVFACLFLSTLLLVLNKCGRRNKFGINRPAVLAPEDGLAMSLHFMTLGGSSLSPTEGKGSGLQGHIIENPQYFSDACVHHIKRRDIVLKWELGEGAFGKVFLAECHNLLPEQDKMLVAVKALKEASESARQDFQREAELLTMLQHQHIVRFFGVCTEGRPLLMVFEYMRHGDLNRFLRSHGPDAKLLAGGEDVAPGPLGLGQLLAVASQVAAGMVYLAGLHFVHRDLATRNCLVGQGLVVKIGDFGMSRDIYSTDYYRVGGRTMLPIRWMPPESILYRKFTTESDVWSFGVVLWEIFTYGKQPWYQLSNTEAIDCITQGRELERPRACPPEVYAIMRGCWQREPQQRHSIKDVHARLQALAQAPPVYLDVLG

TRKC = TRKC (Homo sapiens (Human), UniProt Q16288); assay: Cell based DiscoveRx PathHunter antagonist assay, TRKC cell line; details: read-out: TrkC cell potency
Protocol: After the Detection Reagent addition, plates are covered and incubated at room temperature for 60 minutes. […] Test compound data are expressed as percentage inhibition defined by HPE and ZPE values for each plate. Percentage inhibition in the presence of test compound is plotted against compound concentration on a log scale to determine an IC50 from the resultant sigmoid curve. Cell Based Assays were carried out using Cell lines from DiscoveRx utilising their PathHunter technology and reagents in an antagonist assay:
The assays are based upon DiscoveRx's proprietary Enzyme Fragment Complementation (EFC) technology. In the case of the TRK cell lines, the enzyme acceptor (EA) protein is fused to a SH2 protein and the TRK receptor of interest has been tagged with a Prolink tag.
Upon neurotrophin binding, the TRK receptor becomes phosphorylated, and the tagged SH2 protein binds.
This means that the IC50 is a good measure of affinity and should be unaffected by concentration neurotrophin stimulant.
Cryopreserved PathHunter cells are used from either in-house produced batches or bulk batches bought directly from DiscoveRx. Cryopreserved cells are resuscitated, spun 1000 rpm for 4 min to remove freezing media, and resuspended in MEM+0.5% horse serum (both Invitrogen) to 5e^5 cells/ml. The cells are then plated using a Multidrop into Greiner white tissue culture treated plates at 20 ul/well and incubated for 24 h at 37° C., 5% CO2, high humidity. On the day of the assay, the cell plates are allowed to cool to room temperature for 30 min prior to the assay.
Plates containing 1 ul of serially diluted compound, standard and HPE/ZPE are diluted 1/66 in assay buffer (PBS minus Ca^2+, minus Mg^2+ with 0.05% pluronic F127) using a Wellmate. […] The plates are left at room temperature for a further 2 hours before addition of 10 ul of the DiscoveRx PathHunter detection reagent (made up by adding 1 part Galacton Star, 5 parts Emerald II and 19 parts Cell Assay Buffer as per the manufacturer's instructions).
After reagent addition, plates are covered and incubated at room temperature for 60 minutes. Luminescence signal is read using an Envision. Test compound data are expressed as percentage inhibition defined by HPE and ZPE values for each plate. Percentage inhibition in the presence of test compound is plotted against compound concentration on a log scale to determine an […] from the resultant sigmoid curve.

TRKB [2] = target: T2, TRKB (Homo sapiens (Human), UniProt Q16620); assay: cell-based; details: TrkB cell potency, TRKB PathHunter cell line
TRKB [3] = target: T2, TRKB; assay: biochemical
TRKA [4] = target: T1, TRKA; assay: Isolated TRK enzyme assay (HTRF KinEASE-TK), TRKA; format: biochemical; details: isolated TRKA enzyme; read-out: TrkA enzyme potency
Target sequence in this assay (P04629 441-796): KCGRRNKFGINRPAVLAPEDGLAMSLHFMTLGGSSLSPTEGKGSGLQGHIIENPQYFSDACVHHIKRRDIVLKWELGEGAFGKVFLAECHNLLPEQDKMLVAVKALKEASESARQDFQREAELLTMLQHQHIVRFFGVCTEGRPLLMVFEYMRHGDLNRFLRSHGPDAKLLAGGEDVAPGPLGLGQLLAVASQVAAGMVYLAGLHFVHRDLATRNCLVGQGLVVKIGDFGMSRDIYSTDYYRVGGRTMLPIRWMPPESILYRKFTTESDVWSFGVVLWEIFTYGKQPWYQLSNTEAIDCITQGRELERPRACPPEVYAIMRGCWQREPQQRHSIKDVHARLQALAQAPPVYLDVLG

MDR1 = MDR1 (Homo sapiens (Human), UniProt P08183); assay: MDCK-MDR1 assay (in vitro brain penetration); format: in vitro ADME; details: for MDCK MDR1 Papp AB / Papp A→B: MDCK-MDR1, A to B; for Papp A→B / Papp B→A: human; for Papp A→B: read-out: MDCK MDR1 Papp AB; for Papp B→A: read-out: MDCK MDR1 Papp BA
Text: MDCK-MDR1: MDCK-MDR1 data were collected according to the method described in “Are MDCK Cells Transfected with the Human MDR1 Gene a Good Model of the Human Intestinal Mucosa?”
http://www.springerlink.com/content/qfhqlqbr4fnp3 khf/fulltext.pdf

[5] = isolated TRKB enzyme, read-out: TrkB enzyme potency

T2 sequence (Q16620 32-822 limits assumed): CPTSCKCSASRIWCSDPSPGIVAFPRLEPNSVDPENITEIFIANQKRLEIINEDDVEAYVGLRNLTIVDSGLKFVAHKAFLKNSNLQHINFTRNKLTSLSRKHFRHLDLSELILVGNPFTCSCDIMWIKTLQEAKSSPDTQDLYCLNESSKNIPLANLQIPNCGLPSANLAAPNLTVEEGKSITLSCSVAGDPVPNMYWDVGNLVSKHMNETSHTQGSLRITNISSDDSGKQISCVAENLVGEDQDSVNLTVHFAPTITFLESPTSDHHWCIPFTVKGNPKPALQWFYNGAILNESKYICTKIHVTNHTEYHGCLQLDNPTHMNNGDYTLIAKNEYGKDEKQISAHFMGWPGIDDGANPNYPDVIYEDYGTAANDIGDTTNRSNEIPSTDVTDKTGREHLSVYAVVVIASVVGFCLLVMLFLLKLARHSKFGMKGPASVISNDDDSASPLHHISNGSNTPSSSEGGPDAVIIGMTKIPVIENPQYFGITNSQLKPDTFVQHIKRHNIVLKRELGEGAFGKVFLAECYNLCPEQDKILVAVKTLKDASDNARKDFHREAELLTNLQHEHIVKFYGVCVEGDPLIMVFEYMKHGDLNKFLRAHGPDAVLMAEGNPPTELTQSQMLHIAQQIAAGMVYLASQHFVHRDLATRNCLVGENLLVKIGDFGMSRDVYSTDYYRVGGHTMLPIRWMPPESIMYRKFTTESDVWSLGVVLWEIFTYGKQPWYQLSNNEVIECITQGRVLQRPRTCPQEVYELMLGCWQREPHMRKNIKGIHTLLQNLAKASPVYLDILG
Sequence of TRKC (Q16288 32-839): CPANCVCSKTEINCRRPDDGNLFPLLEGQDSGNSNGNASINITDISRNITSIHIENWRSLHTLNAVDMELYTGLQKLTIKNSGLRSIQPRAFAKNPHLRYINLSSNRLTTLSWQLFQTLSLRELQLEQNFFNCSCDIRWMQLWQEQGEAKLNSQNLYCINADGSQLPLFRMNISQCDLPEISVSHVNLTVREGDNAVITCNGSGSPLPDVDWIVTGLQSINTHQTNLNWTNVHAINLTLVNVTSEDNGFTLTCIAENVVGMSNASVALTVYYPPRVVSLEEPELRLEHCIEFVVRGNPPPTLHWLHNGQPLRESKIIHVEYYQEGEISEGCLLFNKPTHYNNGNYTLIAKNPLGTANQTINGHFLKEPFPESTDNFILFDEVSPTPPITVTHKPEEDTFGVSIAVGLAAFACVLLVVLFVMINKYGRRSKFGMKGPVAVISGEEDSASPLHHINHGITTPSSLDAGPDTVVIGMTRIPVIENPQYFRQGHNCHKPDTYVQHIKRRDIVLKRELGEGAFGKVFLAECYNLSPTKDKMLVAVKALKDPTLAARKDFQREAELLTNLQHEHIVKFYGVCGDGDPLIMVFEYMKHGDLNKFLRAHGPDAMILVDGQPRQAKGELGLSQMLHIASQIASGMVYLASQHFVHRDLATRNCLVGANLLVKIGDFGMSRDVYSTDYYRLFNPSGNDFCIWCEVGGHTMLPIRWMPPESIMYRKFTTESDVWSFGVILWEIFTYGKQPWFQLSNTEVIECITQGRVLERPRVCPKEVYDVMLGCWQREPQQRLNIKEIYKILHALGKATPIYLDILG
Sequence of MDR1 (P08183 whole entry): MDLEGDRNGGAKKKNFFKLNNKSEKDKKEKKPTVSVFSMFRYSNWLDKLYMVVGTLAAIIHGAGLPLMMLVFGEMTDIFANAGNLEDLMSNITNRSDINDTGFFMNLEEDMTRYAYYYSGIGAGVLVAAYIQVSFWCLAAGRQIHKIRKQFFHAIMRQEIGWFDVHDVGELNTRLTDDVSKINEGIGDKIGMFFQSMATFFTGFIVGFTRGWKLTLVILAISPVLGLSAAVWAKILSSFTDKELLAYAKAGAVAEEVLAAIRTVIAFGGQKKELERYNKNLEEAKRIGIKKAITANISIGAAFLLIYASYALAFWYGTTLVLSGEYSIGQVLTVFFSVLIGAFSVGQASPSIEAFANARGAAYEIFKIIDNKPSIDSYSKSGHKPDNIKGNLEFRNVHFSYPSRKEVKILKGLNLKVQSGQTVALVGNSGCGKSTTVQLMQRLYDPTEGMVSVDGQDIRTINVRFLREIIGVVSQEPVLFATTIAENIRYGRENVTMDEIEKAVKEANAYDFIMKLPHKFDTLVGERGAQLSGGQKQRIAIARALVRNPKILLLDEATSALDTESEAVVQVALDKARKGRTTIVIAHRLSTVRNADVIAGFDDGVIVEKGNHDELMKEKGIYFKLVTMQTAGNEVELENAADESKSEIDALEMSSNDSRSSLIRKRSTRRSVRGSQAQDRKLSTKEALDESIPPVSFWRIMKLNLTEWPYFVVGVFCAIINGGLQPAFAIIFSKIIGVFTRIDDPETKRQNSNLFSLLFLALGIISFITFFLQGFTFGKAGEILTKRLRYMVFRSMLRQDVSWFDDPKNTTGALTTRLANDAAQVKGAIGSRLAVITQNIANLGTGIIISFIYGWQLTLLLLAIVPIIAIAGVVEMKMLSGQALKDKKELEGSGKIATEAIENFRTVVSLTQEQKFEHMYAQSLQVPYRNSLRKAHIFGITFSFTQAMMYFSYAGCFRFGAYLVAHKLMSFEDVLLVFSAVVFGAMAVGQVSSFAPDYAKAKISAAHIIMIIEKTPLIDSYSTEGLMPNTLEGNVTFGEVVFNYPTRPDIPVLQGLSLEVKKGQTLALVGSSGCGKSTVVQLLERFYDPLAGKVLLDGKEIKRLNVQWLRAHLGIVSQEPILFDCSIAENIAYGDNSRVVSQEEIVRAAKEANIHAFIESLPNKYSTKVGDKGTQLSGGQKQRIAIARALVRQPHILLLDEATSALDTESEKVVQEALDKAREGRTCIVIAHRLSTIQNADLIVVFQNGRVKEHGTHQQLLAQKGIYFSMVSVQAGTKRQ

SMILES | IC50 (TRKA [1]) [nM] | IC50 (TRKC) [nM] | IC50 (TRKB [2]) [nM] | IC50 (TRKB [3]; [5]) [nM] | IC50 (TRKA [4]) [nM] | MDCK MDR1 Papp AB (MDR1) [×10⁻⁶ cm/s] | MDCK MDR1 Papp BA (MDR1; MDCK-MDR1, B to A) [×10⁻⁶ cm/s] | IC50 (TRKB [3]; TrkB enzyme potency) [nM] | Papp A→B (MDR1) [×10⁻⁶ cm/s] | Papp B→A (MDR1; MDCK-MDR1, B to A) [×10⁻⁶ cm/s] | Papp B→A (MDR1; MDCK-MDR1, MDCK-MDR1, B to A) [×10⁻⁶ cm/s]
CC(CO)n1cc(C(=O)c2cncc(NC(=O)Cc3ccc(Cl)cc3)c2)c2cnc(N)nc21 (single isomer, unassigned) [Example 42, N-(5-{[2-amino-7-(2-hydroxy-1-methylethyl)-7H-pyrrolo[2,3-d]pyrimidin-5-yl]carbonyl}pyridin-3-yl)-2-(4-chlorophenyl)acetamide] | 44 | 13 | 27 | 191 | 3.8 | <1 | 9.5 |  |  |  | 
CC(CO)n1cc(C(=O)c2cncc(NC(=O)Cc3ccc(C(F)(F)F)cc3)c2)c2cnc(N)nc21 (single isomer, unassigned) [Example 43, N-(5-{[2-amino-7-(2-hydroxy-1-methylethyl)-7H-pyrrolo[2,3-d]pyrimidin-5-yl]carbonyl}pyridin-3-yl)-2-[4-(trifluoromethyl)phenyl]acetamide] | 17 | 11 | 19 | 136 | 5.1 | <1 | 13 |  |  |  | 
Cc1cc(C(F)(F)F)nn1CC(=O)Nc1cncc(C(=O)c2cn([C@@H](C)CO)c3ncncc23)c1 [Example 10, N-[5-({7-[(1S)-2-Hydroxy-1-methylethyl]-7H-pyrrolo[2,3-d]pyrimidin-5-yl}carbonyl)pyridin-3-yl]-2-[5-methyl-3-(trifluoromethyl)-1H-pyrazol-1-yl]acetamide] | 30 | 18 | 18 | 78 | 5.7 |  |  |  | < 1 |  | 14
C[C@@H](CO)n1cc(C(=O)c2cncc(NC(=O)Cc3ccc(Cl)cc3)c2)c2cncnc21 [Example 11, 2-(4-chlorophenyl)-N-[5-({7-[(1S)-2-hydroxy-1-methylethyl]-7H-pyrrolo[2,3-d]pyrimidin-5-yl}carbonyl)pyridin-3-yl]acetamide] | 17 | 6.6 | 11 |  | 3.3 |  |  | 197 | < 1 | 23 | 
C[C@@H](CO)n1cc(C(=O)c2cncc(NC(=O)Cc3ccc(Cl)cn3)c2)c2cncnc21 [Example 14, 2-(5-chloropyridin-2-yl)-N-[5-({7-[(1S)-2-hydroxy-1-methylethyl]-7H-pyrrolo[2,3-d]pyrimidin-5-yl}carbonyl)pyridin-3-yl]acetamide] | 41 | 4.8 | 15 | 773 | 13 |  |  |  | < 1 |  | 21
C[C@H](CO)n1cc(C(=O)c2cncc(NC(=O)Cc3ccc(Cl)cc3)c2)c2cncnc21 [Example 24, 2-(4-chlorophenyl)-N-[5-({7-[(1R)-2-hydroxy-1-methylethyl]-7H-pyrrolo[2,3-d]pyrimidin-5-yl}carbonyl)pyridin-3-yl]acetamide] | 37 | 8.9 | 27 |  | 125 |  |  | 427 | < 1 | 10 | 
CC(C)(CO)n1cc(C(=O)c2cncc(NC(=O)Cc3ccc(C(F)(F)F)cc3)c2)c2cncnc21 [Example 27, N-(5-{[7-(2-hydroxy-1,1-dimethylethyl)-7H-pyrrolo[2,3-d]pyrimidin-5-yl]carbonyl}pyridin-3-yl)-2-[4-(trifluoromethyl)phenyl]acetamide] | 3.9 | 3.2 | 5.4 | 55 | 2.8 |  |  |  | < 1 |  | 17
CC(C)(CO)n1cc(C(=O)c2cncc(NC(=O)Cc3ccc(C(F)(F)F)cc3)c2)c2cnc(N)nc21 [Example 48, N-(5-{[2-amino-7-(2-hydroxy-1,1-dimethylethyl)-7H-pyrrolo[2,3-d]pyrimidin-5-yl]carbonyl}pyridin-3-yl)-2-[4-(trifluoromethyl)phenyl]acetamide] | 2.9 | 2.5 | 3.6 | 40 | 1.7 |  |  |  | < 1 |  | 12
CC(C)(CO)n1cc(C(=O)c2cncc(NC(=O)Cc3ccc(F)cn3)c2)c2cnc(N)nc21 [Example 51, N-(5-{[2-amino-7-(2-hydroxy-1,1-dimethylethyl)-7H-pyrrolo[2,3-d]pyrimidin-5-yl]carbonyl}pyridin-3-yl)-2-(5-fluoropyridin-2-yl)acetamide] | 35 | 9.9 | 7.5 | 198 | 7.8 |  |  |  | < 1 |  | 11
CC(C)(CO)n1cc(C(=O)c2cncc(NC(=O)Cn3ccc(C4CC4)n3)c2)c2cnc(N)nc21 [Example 53, N-(5-{[2-amino-7-(2-hydroxy-1,1-dimethylethyl)-7H-pyrrolo[2,3-d]pyrimidin-5-yl]carbonyl}pyridin-3-yl)-2-(3-cyclopropyl-1H-pyrazol-1-yl)acetamide] | 16 | 8.6 | 5 |  | 4 |  |  | 163 | < 1 | 13 | 

The next lines start with the values.

IC50 (TRKA [1]) [nM] | IC50 (TRKC) [nM] | IC50 (TRKB [2]) [nM] | IC50 (TRKB [3]; [5]) [nM] | IC50 (TRKA [4]) [nM] | MDCK MDR1 Papp AB (MDR1) [×10⁻⁶ cm/s] | MDCK MDR1 Papp BA (MDR1; MDCK-MDR1, B to A) [×10⁻⁶ cm/s] | IC50 (TRKB [3]; TrkB enzyme potency) [nM] | Papp A→B (MDR1) [×10⁻⁶ cm/s] | Papp B→A (MDR1; MDCK-MDR1, B to A) [×10⁻⁶ cm/s] | Papp B→A (MDR1; MDCK-MDR1, MDCK-MDR1, B to A) [×10⁻⁶ cm/s] | SMILES
5.3 | 1.1 | 3.9 |  | 8.4 |  |  | 113 | < 1 | 15 |  | CC(C)(C)n1cc(C(=O)c2cncc(NC(=O)Cn3cc(C(F)(F)F)nn3)c2)c2cncnc21 [Example 2, N-{5-[(7-tert-butyl-7H-pyrrolo[2,3-d]pyrimidin-5-yl)carbonyl]pyridin-3-yl}-2-[4-(trifluoromethyl)-1H-1,2,3-triazol-1-yl]acetamide]
3.5 | 2 | 3.6 | 73 | 2.6 |  |  |  | 1.5 |  | 14 | CC(C)(C)n1cc(C(=O)c2cncc(NC(=O)Cn3ccc(C(F)(F)F)n3)c2)c2cncnc21 [Example 5, N-{5-[(7-tert-butyl-7H-pyrrolo[2,3-d]pyrimidin-5-yl)carbonyl]pyridin-3-yl}-2-[3-(trifluoromethyl)-1H-pyrazol-1-yl]acetamide]
1.9 | 2.3 | 2 |  | 2.4 |  |  | 15 | 1.8 | 15 |  | CC(C)(C)n1cc(C(=O)c2cncc(NC(=O)Cn3cc(C(F)(F)F)cn3)c2)c2cncnc21 [Example 8, N-{5-[(7-tert-butyl-7H-pyrrolo[2,3-d]pyrimidin-5-yl)carbonyl]pyridin-3-yl}-2-[4-(trifluoromethyl)-1H-pyrazol-1-yl]acetamide]
87 | 18 | 59 | 423 | 9 |  |  |  | < 1 |  | 3.4 | CC(C)(CO)n1cc(C(=O)c2cncc(NC(=O)Cn3cc(C(F)(F)F)nn3)c2)c2cncnc21 [Example 32, N-(5-{[7-(2-hydroxy-1,1-dimethylethyl)-7H-pyrrolo[2,3-d]pyrimidin-5-yl]carbonyl}pyridin-3-yl)-2-[4-(trifluoromethyl)-1H-1,2,3-triazol-1-yl]acetamide]
22 | 8.1 | 16 |  | 3.1 |  |  | 103 | < 1 | 9.1 |  | CC(C)(CO)n1cc(C(=O)c2cncc(NC(=O)Cn3ccc(C(F)(F)F)n3)c2)c2cnc(N)nc21 [Example 52, N-(5-{[2-amino-7-(2-hydroxy-1,1-dimethylethyl)-7H-pyrrolo[2,3-d]pyrimidin-5-yl]carbonyl}pyridin-3-yl)-2-[3-(trifluoromethyl)-1H-pyrazol-1-yl]acetamide]
